In patent US9763445B2, “Safened herbicidal compositions comprising a pyridine carboxylic acid herbicide” (Dow AgroSciences, LLC, priority 2014, dated 2017):

Key:
[1] = tested on: corn/maize (ZEAMX); test: Postemergence greenhouse trial, % visual injury on corn/maize; assay type: in vivo, Zea mays; settings: for % visual injury, observed (Ob): ZEAMX
Experimental: (§1) Seeds of the desired test plant species were planted in Sun Gro MetroMix® 306 planting mixture, which typically has a pH of 6.0 to 6.8 and an organic matter content of about 30 percent, in plastic pots with a surface area of 103.2 square centimeters (cm^2). When required to ensure good germination and healthy plants, a fungicide treatment and/or other chemical or physical treatment was applied. The plants were grown for 7-36 days (d) in a greenhouse with an approximate 14-hour (h) photoperiod which was maintained at about 23° C. during the day and 22° C. during the night. Nutrients and water were added on a regular basis and supplemental lighting was provided with overhead metal halide 1000-Watt lamps as necessary. The plants were employed for testing when they reached the second or third true leaf stage.
(§2) Weighed amounts of technical material were dissolved in a volume of 97:3 volume per volume (v/v) acetone/dimethyl sulfoxide (DMSO) to stock solutions. […] The concentrated stock solutions were diluted with an aqueous mixture of 1.5% v/v of Agri-dex crop oil concentrate to provide the appropriate application rates. Compound requirements are based upon a 12 milliliter (mL) application volume at a rate of 187 liters per hectare (L/ha). Stocks solutions of the safeners were prepared following the same procedure. Spray solutions of the safeners and experimental compound mixtures were prepared by adding the stock solutions to the appropriate amount of dilution solution to form a 12 mL spray solution in two-way combinations. Formulated compounds were applied to the plant material with an overhead Mandel track sprayer equipped with 8002E nozzles calibrated to deliver 187 L/ha over an application area of 0.503 square meters (m^2) at a spray height of 18 inches (43 centimeters (cm)) above average plant canopy. Control plants were sprayed in the same manner with the solvent blank. All herbicide application (component a) rates are in g ae/ha and all safener (component b) rates are in g ai/ha.
(§3) The treated plants and control plants were placed in a greenhouse as described above and watered by sub-irrigation to prevent wash-off of the test compounds. After 20-22 d, the condition of the test plants as compared with that of the control plants was determined visually and scored on a scale of 0 to 100 percent where 0 corresponds to no injury and 100 corresponds to complete kill. The condition of the test plants was compared with that of the control plants as determined visually and scored on a scale of 0 to 100 percent, where 0 corresponds to no injury and 100 corresponds to complete kill. Colby's equation was used to determine the herbicidal effects expected from the mixtures.
(§4) The safener cloquintocet-mexyl was combined with compound 1, compound 2, compound 4, compound 5, and compound 6, and applied to corn/maize (ZEAMX) and spring wheat (TRZAS) and the phytotoxicity of the herbicidal compositions was measured. In addition, the efficacy of the herbicidal composition on velvetleaf (ABUTH, Abutilon theophrasti), pigweed (AMARE, Amaranthus retroflexus), winter rape (BRSNW, Brassica napus), lambsquarters (CHEAL, Chenopodium album), thistle (CIRAR, Cirsium arvense), nutsedge (CYPES, Cyperus esculentus), poinsettia (EPHHL, Euphorbia heterophylla), wild buckwheat (POLCO, Polygonum convolvulus), giant foxtail (SETFA, Setaria faberi), and chickweed (STEME, Stellaria media) was evaluated. […]

[2] = tested on: winter wheat (TRZAW); test: Postemergence greenhouse trial, % visual injury on winter wheat; assay type: in vivo, Triticum aestivum; settings: TRZAW
Experimental: as §1, §2, §3
(§5) The safener cloquintocet-mexyl was combined with compound 1, compound 2, compound 3, compound 7, compound 8, compound 9, compound 10, compound 11, compound 12, compound 13, compound 14, compound 15, compound 16, compound 17, compound 18, compound 19, and compound 20, and applied to spring wheat (TRZAS), winter wheat (TRZAW), and spring barley (HORVS) and the phytotoxicity of the herbicidal compositions was measured. […]

[3] = tested on: pigweed (AMARE); test: Postemergence greenhouse trial, % visual injury on pigweed; assay type: in vivo, Amaranthus retroflexus; settings: for % visual injury, observed (Ob): AMARE
Experimental: as §1, §2, §3, §4
(§6) The safener cloquintocet-acid and a number of agriculturally acceptable esters and salts (-mexyl, -dimethylammonium salt and -triethylammonium salt) were combined in varying ratios with compound 1 and applied to spring wheat (TRZAS), winter wheat (TRZAW), and spring barley (HORVS), and the phytotoxicity of the herbicidal compositions was measured. […]

[4] = tested on: nutsedge (CYPES); test: Postemergence greenhouse trial, % visual injury on nutsedge; assay type: in vivo, Cyperus esculentus; settings: CYPES
Experimental: as §1, §2, §3, §4, §6

[5] = tested on: common sunflower (HELAN); test: Postemergence greenhouse trial, % visual injury on common sunflower; assay type: in vivo, Helianthus annuus
Experimental: as §1, §2, §3
(§7) The safener cloquintocet-acid and a number of agriculturally acceptable esters and salts (-mexyl, -dimethylammonium salt and -triethylammonium salt) were combined in varying ratios with compound 1 and applied to spring wheat (TRZAS), winter wheat (TRZAW), and spring barley (HORVS), and the phytotoxicity of the herbicidal compositions was measured. In addition, the efficacy of the herbicidal composition on pigweed (AMARE, Amaranthus retroflexus), nutsedge (CYPES, Cyperus esculentus), common sunflower (HELAN, Helianthus annuus), and common sorghum (SORVU, Sorghum vulgare).

[6] = tested on: common sorghum (SORVU); test: Postemergence greenhouse trial, % visual injury on common sorghum; assay type: in vivo, Sorghum vulgare; settings: SORVU
Experimental: as §1, §2
as §3, with “mixtures. […]” for “mixtures.”
as §7

[7] = tested on: spring wheat (TRZAS); test: Postemergence greenhouse trial, % visual injury on spring wheat; assay type: in vivo, Triticum aestivum; settings: alone, 35 g/ha
Experimental: as §1, §2, §3
(§8) The safener cloquintocet-mexyl was combined with compound 1, compound 2, compound 4, compound 5, and compound 6, and applied to corn/maize (ZEAMX) and spring wheat (TRZAS) and the phytotoxicity of the herbicidal compositions was measured. In addition, the efficacy of the herbicidal composition on velvetleaf (ABUTH, Abutilon theophrasti), pigweed (AMARE, Amaranthus retroflexus), winter rape (BRSNW, Brassica napus), lambsquarters (CHEAL, Chenopodium album), thistle (CIRAR, Cirsium arvense), nutsedge (CYPES, Cyperus esculentus), poinsettia (EPHHL, Euphorbia heterophylla), wild buckwheat (POLCO, Polygonum convolvulus), giant foxtail (SETFA, Setaria faberi), and chickweed (STEME, Stellaria media) was evaluated.
as §5

[8] = tested on: velvetleaf (ABUTH); test: Postemergence greenhouse trial, % visual injury on velvetleaf; assay type: in vivo, Abutilon theophrasti; settings: alone, 35 g/ha
Experimental: as §1, §2, §3, §8, §5

[9] = tested on: winter rape (BRSNW); test: Postemergence greenhouse trial, % visual injury on winter rape; assay type: in vivo, Brassica napus; settings: Brassica napus, post-emergence; alone, 35 g/ha; read-out: % visual injury, Ob
Experimental: as §1, §2, §3, §4

[10] = tested on: lambsquarters (CHEAL); test: Postemergence greenhouse trial, % visual injury on lambsquarters; assay type: in vivo, Chenopodium album; settings: Chenopodium album, post-emergence; alone, 35 g/ha; read-out: % visual injury, Ob
Experimental: as §1, §2, §3, §8, §5

[11] = tested on: thistle (CIRAR); test: Postemergence greenhouse trial, % visual injury on thistle; assay type: in vivo, Cirsium arvense; settings: Cirsium arvense, post-emergence; alone, 35 g/ha; read-out: % visual injury, Ob
Experimental: as §1, §2, §3, §4

[12] = tested on: wild buckwheat (POLCO); test: Postemergence greenhouse trial, % visual injury on wild buckwheat; assay type: in vivo, Polygonum convolvulus; settings: alone, 35 g/ha
Experimental: as §1, §2, §3, §8, §5

[13] = tested on: chickweed (STEME); test: Postemergence greenhouse trial, % visual injury on chickweed; assay type: in vivo, Stellaria media; settings: alone, 35 g/ha
Experimental: as §1, §2, §3, §4

SMILES | % visual injury, observed (Ob) ([1]; safener alone 2.5 g/ha) [%] | % visual injury, observed (Ob) ([1]; safener alone 5 g/ha) [%] | % visual injury, observed (Ob) ([1]; safener alone 10 g/ha) [%] | % visual injury, observed (Ob) ([1]; safener alone 20 g/ha) [%] | % visual injury, observed (Ob) ([2]; safener alone 2.5 g/ha) [%] | % visual injury, observed (Ob) ([2]; safener alone 5 g/ha) [%] | % visual injury, observed (Ob) ([2]; safener alone 10 g/ha) [%] | % visual injury, observed (Ob) ([2]; safener alone 20 g/ha) [%] | % visual injury, observed (Ob) ([3]; safener alone 2.5 g/ha) [%] | % visual injury, observed (Ob) ([3]; safener alone 5 g/ha) [%] | % visual injury, observed (Ob) ([3]; safener alone 10 g/ha) [%] | % visual injury, observed (Ob) ([3]; safener alone 20 g/ha) [%] | % visual injury, observed (Ob) ([4]; safener alone 2.5 g/ha) [%] | % visual injury, observed (Ob) ([4]; safener alone 5 g/ha) [%] | % visual injury, observed (Ob) ([4]; safener alone 10 g/ha) [%] | % visual injury, observed (Ob) ([4]; safener alone 20 g/ha) [%] | % visual injury, observed (Ob) ([5]; safener alone 2.5 g/ha) [%] | % visual injury, observed (Ob) ([5]; safener alone 5 g/ha) [%] | % visual injury, observed (Ob) ([5]; safener alone 10 g/ha) [%] | % visual injury, observed (Ob) ([5]; safener alone 20 g/ha) [%] | also measured
CCN(CC)CC.O=C(O)COc1ccc(Cl)c2cccnc12 [CQC-TEA] | 0 | 0 | 0 | 0 | 0 | 0 | 0 | 0 | 0 | 0 | 0 | 0 | 0 | 0 | 0 | 0 | 0 | 0 | 0 | 0 | % visual injury, observed (Ob) ([6]; safener alone 2.5 g/ha): 0%; % visual injury, observed (Ob) ([6]; safener alone 5 g/ha): 0%; % visual injury, observed (Ob) ([6]; safener alone 10 g/ha): 0%; % visual injury, observed (Ob) ([6]; safener alone 20 g/ha): 0%
CNC.O=C(O)COc1ccc(Cl)c2cccnc12 [CQC-DMA] | 0 | 0 | 0 | 0 | 0 | 0 | 0 | 0 | 0 | 0 | 0 | 0 | 0 | 0 | 0 | 0 | 0 | 0 | 0 | 0 | % visual injury, observed (Ob) ([6]; safener alone 2.5 g/ha): 0%; % visual injury, observed (Ob) ([6]; safener alone 5 g/ha): 0%; % visual injury, observed (Ob) ([6]; safener alone 10 g/ha): 0%; % visual injury, observed (Ob) ([6]; safener alone 20 g/ha): 0%
COC(=O)c1nc(-c2ccc3ccn(C(=O)C(C)C)c3c2F)c(F)c(N)c1Cl [compound 4] |  |  |  |  |  |  |  |  |  |  |  |  |  |  |  |  |  |  |  |  | % visual injury, Ob ([1]; alone, 35 g/ha): 35%; % visual injury, Ob [7]: 40%; % visual injury, Ob [8]: 80%; pest or weed control at 35 g/ha ([3]; Amaranthus retroflexus, post-emergence, alone, 35 g/ha, read-out: % visual injury, Ob): 100%; plant injury at 35 g/ha [9]: 97%; pest or weed control at 35 g/ha [10]: 97%; pest or weed control at 35 g/ha [11]: 75%; % visual injury, Ob [12]: 100%; % visual injury, Ob [13]: 93%
